Measurements published in PubChem BioAssay AID2060897 (Molecular Pharmacology Branch, DTP, NCI, 2025).

Tested on: 966289-007-R4-J1-PDC complex spheroid viability
Test: Anticancer human tumor 966289-007-R4-J1-PDC patient-derived pancreatic adenocarcinoma cell line growth inhibition [RAS]
Conditions: for IC50: curve of first compound; for viability, T/C: stronger effect = lower value
Summary of the method: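 Multi-cell-type spheroids: tumor cells plus HUVEC endothelial cells and mesenchymal stem cells. RAS-pathway inhibitors were combined with targeted agents, each dosed in half-log steps down from clinical Cmax, or from 10 microM when Cmax was unknown.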
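Note: spheroids exposed to agents for one week before readout.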
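Throughout, for viability, T/C: percent viability relative to DMSO vehicle control wells as 100%.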

## Nc1ccn(C2OC(CO)C(O)C2(F)F)c(=O)n1 (centres undefined) + CCn1c(-c2cc(N3CCN(C)CC3)cnc2C(C)OC)c2c3cc(ccc31)-c1csc(n1)CC(NC(=O)C1CC1C)C(=O)N1CCCC(N1)C(=O)OCC(C)(C)C2
Second compound 0.000949 µM
  IC50: 0.00604 µM
Second compound 0.003 µM
  IC50: 0.0063 µM
Second compound 0.00949 µM
  IC50: 0.0062 µM
Second compound 0.03 µM
  IC50: 0.00634 µM
Second compound 0.0949 µM
  IC50: 0.00696 µM
Second compound 0.3 µM
  IC50: 0.0125 µM
Second compound 0.000949 µM, first compound 0.00316 µM
  viability, T/C: 97.8%
Second compound 0.000949 µM, first compound 0.01 µM
  viability, T/C: 12.9%
Second compound 0.000949 µM, first compound 0.0316 µM
  viability, T/C: 1.26%
Second compound 0.000949 µM, first compound 0.1 µM
  viability, T/C: 0.95%
Second compound 0.000949 µM, first compound 0.316 µM
  viability, T/C: 1.14%
Second compound 0.000949 µM, first compound 1 µM
  viability, T/C: 1.37%
Second compound 0.003 µM, first compound 0.00316 µM
  viability, T/C: 102%
Second compound 0.003 µM, first compound 0.01 µM
  viability, T/C: 14.8%
Second compound 0.003 µM, first compound 0.0316 µM
  viability, T/C: 1.26%
Second compound 0.003 µM, first compound 0.1 µM
  viability, T/C: 1.21%
Second compound 0.003 µM, first compound 0.316 µM
  viability, T/C: 1.3%
Second compound 0.003 µM, first compound 1 µM
  viability, T/C: 1.36%
Second compound 0.00949 µM, first compound 0.00316 µM
  viability, T/C: 101%
Second compound 0.00949 µM, first compound 0.01 µM
  viability, T/C: 13.7%
Second compound 0.00949 µM, first compound 0.0316 µM
  viability, T/C: 1.25%
Second compound 0.00949 µM, first compound 0.1 µM
  viability, T/C: 1.19%
Second compound 0.00949 µM, first compound 0.316 µM
  viability, T/C: 1.09%
Second compound 0.00949 µM, first compound 1 µM
  viability, T/C: 1.04%
Second compound 0.03 µM, first compound 0.00316 µM
  viability, T/C: 97%
Second compound 0.03 µM, first compound 0.01 µM
  viability, T/C: 19.3%
Second compound 0.03 µM, first compound 0.0316 µM
  viability, T/C: 1.26%
Second compound 0.03 µM, first compound 0.1 µM
  viability, T/C: 1.2%
Second compound 0.03 µM, first compound 0.316 µM
  viability, T/C: 1.06%
Second compound 0.03 µM, first compound 1 µM
  viability, T/C: 1.12%
Second compound 0.0949 µM, first compound 0.00316 µM
  viability, T/C: 97.2%
Second compound 0.0949 µM, first compound 0.01 µM
  viability, T/C: 28.2%
Second compound 0.0949 µM, first compound 0.0316 µM
  viability, T/C: 1.31%
Second compound 0.0949 µM, first compound 0.1 µM
  viability, T/C: 1.32%
Second compound 0.0949 µM, first compound 0.316 µM
  viability, T/C: 1.4%
Second compound 0.0949 µM, first compound 1 µM
  viability, T/C: 1.29%
Second compound 0.3 µM, first compound 0.00316 µM
  viability, T/C: 97.6%
Second compound 0.3 µM, first compound 0.01 µM
  viability, T/C: 61.5%
Second compound 0.3 µM, first compound 0.0316 µM
  viability, T/C: 2.02%
Second compound 0.3 µM, first compound 0.1 µM
  viability, T/C: 1.27%
Second compound 0.3 µM, first compound 0.316 µM
  viability, T/C: 1.51%
Second compound 0.3 µM, first compound 1 µM
  viability, T/C: 1.21%

## CC(C)NCC(C(=O)N1CCN(c2ncnc3c2C(C)CC3O)CC1)c1ccc(Cl)cc1 (centres undefined) + C#Cc1c(F)ccc2cc(O)cc(-c3ncc4c(N5CC6CCC(C5)N6)nc(OCC56CCCN5CC(F)C6)nc4c3F)c12
Second compound 0.0316 µM
  IC50: 6.4 µM
Second compound 0.1 µM
  IC50: 6.04 µM
Second compound 0.316 µM
  IC50: 5.61 µM
Second compound 1 µM
  IC50: 6.95 µM
Second compound 3.16 µM
  IC50: 5.64 µM
Second compound 10 µM
  IC50: 2.76 µM
Second compound 0.0316 µM, first compound 0.0316 µM
  viability, T/C: 98.7%
Second compound 0.0316 µM, first compound 0.1 µM
  viability, T/C: 111%
Second compound 0.0316 µM, first compound 0.316 µM
  viability, T/C: 108%
Second compound 0.0316 µM, first compound 1 µM
  viability, T/C: 111%
Second compound 0.0316 µM, first compound 3.16 µM
  viability, T/C: 66.9%
Second compound 0.0316 µM, first compound 10 µM
  viability, T/C: 39.3%
Second compound 0.1 µM, first compound 0.0316 µM
  viability, T/C: 103%
Second compound 0.1 µM, first compound 0.1 µM
  viability, T/C: 109%
Second compound 0.1 µM, first compound 0.316 µM
  viability, T/C: 124%
Second compound 0.1 µM, first compound 1 µM
  viability, T/C: 101%
Second compound 0.1 µM, first compound 3.16 µM
  viability, T/C: 66.4%
Second compound 0.1 µM, first compound 10 µM
  viability, T/C: 37.4%
Second compound 0.316 µM, first compound 0.0316 µM
  viability, T/C: 106%
Second compound 0.316 µM, first compound 0.1 µM
  viability, T/C: 103%
Second compound 0.316 µM, first compound 0.316 µM
  viability, T/C: 128%
Second compound 0.316 µM, first compound 1 µM
  viability, T/C: 102%
Second compound 0.316 µM, first compound 3.16 µM
  viability, T/C: 66.6%
Second compound 0.316 µM, first compound 10 µM
  viability, T/C: 33.6%
Second compound 1 µM, first compound 0.0316 µM
  viability, T/C: 104%
Second compound 1 µM, first compound 0.1 µM
  viability, T/C: 106%
Second compound 1 µM, first compound 0.316 µM
  viability, T/C: 111%
Second compound 1 µM, first compound 1 µM
  viability, T/C: 117%
Second compound 1 µM, first compound 3.16 µM
  viability, T/C: 74.6%
Second compound 1 µM, first compound 10 µM
  viability, T/C: 38.6%
Second compound 3.16 µM, first compound 0.0316 µM
  viability, T/C: 116%
Second compound 3.16 µM, first compound 0.1 µM
  viability, T/C: 106%
Second compound 3.16 µM, first compound 0.316 µM
  viability, T/C: 114%
Second compound 3.16 µM, first compound 1 µM
  viability, T/C: 96.7%
Second compound 3.16 µM, first compound 3.16 µM
  viability, T/C: 67.5%
Second compound 3.16 µM, first compound 10 µM
  viability, T/C: 33%
Second compound 10 µM, first compound 0.0316 µM
  viability, T/C: 110%
Second compound 10 µM, first compound 0.1 µM
  viability, T/C: 111%
Second compound 10 µM, first compound 0.316 µM
  viability, T/C: 125%
Second compound 10 µM, first compound 1 µM
  viability, T/C: 103%
Second compound 10 µM, first compound 3.16 µM
  viability, T/C: 43%
Second compound 10 µM, first compound 10 µM
  viability, T/C: 26.1%
